Assay results from ChEMBL document CHEMBL1201862, “PubChem BioAssay data set” (2004).
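Dose response: 5 concentrations. Exposure: 48 h. Format: 96-well plates. Endpoint: linear interpolation; highest concentration if not reached. Here, GI50 denotes the concentration required for 50% inhibition of growth.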 Active and inactive are the calls of the source. No stated cut-off is given here; in the data, active = GI50 up to about 1.1 µM and inactive = higher.

Legend:
Assay in all cases: inhibition of tumour cell growth, NCI panel, 48 h
HL-60 = test system: HL-60
IGROV-1 = test system: IGROV-1
K562 = test system: K562
MDA-MB-435 = test system: MDA-MB-435
MOLT-4 = test system: MOLT-4
NCI-H226 = test system: NCI-H226
NCI-H522 = test system: NCI-H522
OVCAR-3 = test system: OVCAR-3
OVCAR-5 = test system: OVCAR-5
PC-3 = test system: PC-3
RPMI-8226 = test system: RPMI-8226
SF-295 = test system: SF-295
SF-539 = test system: SF-539
SK-MEL-2 = test system: SK-MEL-2
SK-MEL-5 = test system: SK-MEL-5
SK-OV-3 = test system: SK-OV-3
SR = test system: SR
SW-620 = test system: SW-620
U-251 = test system: U-251
UO-31 = test system: UO-31

| Compound | GI50 (HL-60) | GI50 (IGROV-1) | GI50 (K562) | GI50 (MDA-MB-435) | GI50 (MOLT-4) | GI50 (NCI-H226) | GI50 (NCI-H522) | GI50 (OVCAR-3) | GI50 (OVCAR-5) | GI50 (PC-3) | GI50 (RPMI-8226) | GI50 (SF-295) | GI50 (SF-539) | GI50 (SK-MEL-2) | GI50 (SK-MEL-5) | GI50 (SK-OV-3) | GI50 (SR) | GI50 (SW-620) | GI50 (U-251) | GI50 (UO-31) |
| --- | --- | --- | --- | --- | --- | --- | --- | --- | --- | --- | --- | --- | --- | --- | --- | --- | --- | --- | --- | --- |
| O=S(=O)(c1cccc(C(F)(F)F)c1)N1c2ccccc2-n2cccc2C1c1cccnc1 (stereo not given) | 1.1 µM (active) | 40.6 µM (inactive) | 9.12 µM (inactive) | 6.3 µM (inactive) | 4.18 µM (inactive) | > 28.1 µM (inactive) | 15.4 µM (inactive) | > 35.8 µM (inactive) | > 50.5 µM (inactive) | 10.7 µM (inactive) | 6.17 µM (inactive) | 71.8 µM (inactive) | 28 µM (inactive) | 17.7 µM (inactive) | 8.09 µM (inactive) | > 46.9 µM (inactive) | 6.71 µM (inactive) | 16.5 µM (inactive) | 23.9 µM (inactive) | 17.7 µM (inactive) |
| COc1cc2c(cc1O)Cc1c-2[n+](C)cc2cc(OC)c(OC)cc12 | 2.75 µM (inactive) | 52.7 µM (inactive) | 1.93 µM (inactive) | 36 µM (inactive) | 0.653 µM (active) | > 59 µM (inactive) | 0.49 µM (active) | 29.7 µM (inactive) | > 100 µM (inactive) | 28.8 µM (inactive) | 9.14 µM (inactive) | 7.89 µM (inactive) | 1.82 µM (inactive) | > 100 µM (inactive) | 6.76 µM (inactive) | > 35.6 µM (inactive) | 0.118 µM (active) | 33.4 µM (inactive) | 2.01 µM (inactive) | 8.53 µM (inactive) |
| COc1ccc(-c2cc(=O)c3c(O)cc(O)cc3o2)cc1OC | 39.9 µM (inactive) | 92 µM (inactive) | 92.7 µM (inactive) | > 100 µM (inactive) | 44 µM (inactive) | > 100 µM (inactive) | 16.7 µM (inactive) | 46 µM (inactive) | > 100 µM (inactive) | 55.1 µM (inactive) | 64.9 µM (inactive) | 44.8 µM (inactive) | 18.4 µM (inactive) | > 100 µM (inactive) | 23 µM (inactive) | 47.4 µM (inactive) | 9.2 µM (inactive) | > 100 µM (inactive) | 30 µM (inactive) | 36.7 µM (inactive) |
| C[C@H]1C2Cc3cc(O)ccc3[C@@]1(C)CCN2CCc1ccc(N)cc1 | 38.3 µM (inactive) | 13.6 µM (inactive) | 22.3 µM (inactive) | 17.1 µM (inactive) | 23.7 µM (inactive) | > 100 µM (inactive) | 19.7 µM (inactive) | 14.2 µM (inactive) | > 100 µM (inactive) | 18.8 µM (inactive) | 28.4 µM (inactive) | 18.6 µM (inactive) | 16.7 µM (inactive) | 41.9 µM (inactive) | 14.4 µM (inactive) | > 100 µM (inactive) | 21.6 µM (inactive) | 15.3 µM (inactive) | 17.6 µM (inactive) | 37.2 µM (inactive) |
| CCOP(=O)(CCC(O)CNc1nc(N)nc(Cl)c1/N=N/c1ccc(Cl)cc1)OCC (stereo not given) | 3.5 µM (inactive) | 15.2 µM (inactive) | 13.6 µM (inactive) | 13.2 µM (inactive) | 6.95 µM (inactive) | 16.6 µM (inactive) | 8.99 µM (inactive) | 10.7 µM (inactive) | 17.6 µM (inactive) | 12.4 µM (inactive) | 8.47 µM (inactive) | 14.3 µM (inactive) | > 10 µM (inactive) | 11.6 µM (inactive) | 12.7 µM (inactive) | 17.7 µM (inactive) | 7.87 µM (inactive) | 15.9 µM (inactive) | 11 µM (inactive) | 4.1 µM (inactive) |
| COc1cc(C(O)c2ccc3c(c2)OCO3)cc(OC)c1OC (stereo not given) | > 100 µM (inactive) | > 100 µM (inactive) | > 100 µM (inactive) | 70 µM (inactive) | > 100 µM (inactive) | > 100 µM (inactive) | > 100 µM (inactive) | > 100 µM (inactive) | > 100 µM (inactive) | > 100 µM (inactive) | > 100 µM (inactive) | > 100 µM (inactive) | > 100 µM (inactive) | > 100 µM (inactive) | 80.2 µM (inactive) | > 100 µM (inactive) | > 100 µM (inactive) | > 100 µM (inactive) | > 100 µM (inactive) | 61.2 µM (inactive) |
| CS(=O)(=O)OCCCCOS(C)(=O)=O [BUSULFAN] | 125 µM (inactive) | > 212 µM (inactive) | 201 µM (inactive) | > 1000 µM (inactive) | 124 µM (inactive) | 237 µM (inactive) | 239 µM (inactive) | > 250 µM (inactive) | > 250 µM (inactive) | 235 µM (inactive) | 237 µM (inactive) | 210 µM (inactive) | 233 µM (inactive) | 248 µM (inactive) | 232 µM (inactive) | > 237 µM (inactive) | 87.9 µM (inactive) | 224 µM (inactive) | 234 µM (inactive) | 244 µM (inactive) |
| COc1ccc(/C=C/c2ccnc3ccccc23)cc1 | 6.78 µM (inactive) | 17.3 µM (inactive) | 6.34 µM (inactive) | 17.1 µM (inactive) | 12.2 µM (inactive) | 21.9 µM (inactive) | 17.5 µM (inactive) | 13.4 µM (inactive) | 21.4 µM (inactive) | 18.2 µM (inactive) | 10.7 µM (inactive) | 16.9 µM (inactive) | 21.8 µM (inactive) | 20.3 µM (inactive) | 14.3 µM (inactive) | 19.1 µM (inactive) | 29.3 µM (inactive) | 17.7 µM (inactive) | 17.1 µM (inactive) | 0.021 µM (active) |
| O=[N+]([O-])c1ccc2c(c1)c(S(=O)(=O)O)cc1nonc12 | > 100 µM (inactive) | > 100 µM (inactive) | > 100 µM (inactive) | > 100 µM (inactive) | > 100 µM (inactive) | > 100 µM (inactive) | > 100 µM (inactive) | > 100 µM (inactive) | > 100 µM (inactive) | > 100 µM (inactive) | > 100 µM (inactive) | > 100 µM (inactive) | > 100 µM (inactive) | > 100 µM (inactive) | > 100 µM (inactive) | > 100 µM (inactive) | > 100 µM (inactive) | > 100 µM (inactive) | > 100 µM (inactive) | > 100 µM (inactive) |
| COc1ccc2c(c1)[C@@H](NC(C)=O)CCc1cc(OC)c(OC)c(OC)c1-2 | < 0.012 µM (active) | 0.0173 µM (active) | 0.0128 µM (active) | 0.0132 µM (active) | 0.0206 µM (active) | 0.0891 µM (active) | 0.013 µM (active) | 0.0144 µM (active) | 1.5 µM (inactive) | 0.0251 µM (active) | 0.0206 µM (active) | 0.0151 µM (active) | 0.013 µM (active) | 0.0174 µM (active) | 0.019 µM (active) | 0.129 µM (active) | 0.0834 µM (active) | 0.0172 µM (active) | 0.0173 µM (active) | 0.0296 µM (active) |
| C/C(=N\NC(N)=S)c1nc2cccnc2[nH]1 | 32.6 µM (inactive) | 82 µM (inactive) | 71 µM (inactive) | 52.4 µM (inactive) | 34.8 µM (inactive) | > 56 µM (inactive) | > 68.5 µM (inactive) | 31.8 µM (inactive) | 47.1 µM (inactive) | 81.3 µM (inactive) | > 96.6 µM (inactive) | 84.9 µM (inactive) | 58.9 µM (inactive) | > 100 µM (inactive) | 47.3 µM (inactive) | 30.2 µM (inactive) | 45.5 µM (inactive) | 56.8 µM (inactive) | 40.8 µM (inactive) | 24.9 µM (inactive) |
| O=C(CCc1ccc(O)c(O)c1)NCCc1cc(OCc2ccccc2)cc(OCc2ccccc2)c1 | 2.51 µM (inactive) | 5.93 µM (inactive) | 5.92 µM (inactive) | 12.2 µM (inactive) | 2.52 µM (inactive) | 20.1 µM (inactive) | 1.79 µM (inactive) | 5.92 µM (inactive) | 13.1 µM (inactive) | 8.09 µM (inactive) | 5.27 µM (inactive) | 18.1 µM (inactive) | 11.7 µM (inactive) | 17.9 µM (inactive) | 12.2 µM (inactive) | 14 µM (inactive) | 2.88 µM (inactive) | 7.1 µM (inactive) | 5.77 µM (inactive) | 2.13 µM (inactive) |
| CC(C)(C)[Si](C)(C)OC[C@H](/C=C\CCCC(=O)O)NC1(c2ccccc2)c2ccccc2-c2ccccc21 | 8.53 µM (inactive) | 16.7 µM (inactive) | 5.18 µM (inactive) | 13.9 µM (inactive) | 5.52 µM (inactive) | 11.6 µM (inactive) | 18.7 µM (inactive) | 12.5 µM (inactive) | 23.2 µM (inactive) | 6.52 µM (inactive) | 4.17 µM (inactive) | 16.4 µM (inactive) | 16.3 µM (inactive) | 11.9 µM (inactive) | 11.2 µM (inactive) | 20.4 µM (inactive) | 4.65 µM (inactive) | 22.5 µM (inactive) | 14.4 µM (inactive) | 19.3 µM (inactive) |
